Patent publication US20170291905A1, “ARGININE […] INHIBITORS AND USES THEREOF” (Epizyme, Inc., priority 2014, published 2017)
Where a name gives a salt, the structure may show the parent alone.

Target: full-length human PRMT6 (Flag- and His-tagged) (Homo sapiens, UniProt Q96LA8)
Experiment: PRMT6 biochemical assay (3H-SAM Flashplate, histone H4 36-50 K44me1 peptide)
Conditions: 1 nM PRMT6, 30 min preincubation, 75 nM peptide
From the text: S-adenosylmethionine (SAM), S-adenosylhomocysteine (SAH), bicine, Tween20, dimethylsulfoxide (DMSO), bovine skin gelatin (BSG), sodium butyrate and Tris(2-carboxyethyl)phosphine hydrochloride solution (TCEP) were purchased from Sigma-Aldrich at the highest level of purity possible. ^3H-SAM was purchase from American Radiolabeled Chemicals with a specific activity of 80 Ci/mmol. 384-well streptavidin Flashplates were purchased from PerkinElmer.
Peptide representative of human histone H4 residues 36-50 was synthesized with an N-terminal linker-affinity tag motif and a C-terminal amide cap by 21st Century Biochemicals. The peptide was purified by high-performance liquid chromatography (HPLC) to greater than 95% purity and confirmed by liquid chromatography mass spectrometry (LC-MS). The sequence was Biot-Ahx-[…]-amide and contained a monomethylated lysine at position 44 (SEQ ID NO.:5).
Full-length human PRMT6 (NM_018137.2) transcript clone was amplified from an HEK 293 cDNA library, incorporating a flanking 5′ sequence encoding a FLAG tag ([…]) (SEQ ID NO.:6) fused directly to Ser 2 of PRMT6 and a 3′ sequence encoding a hexa His sequence (HHHHHH) (SEQ ID NO.: 17) fused directly to Asp 375. The amplified gene was subcloned into pFastBacMam (Viva Biotech).
Recombinant baculovirus were generated according to Bac-to-Bac kit instructions (Life Technologies). […] Infections were carried out at 37° C. for 48 hours, harvested by centrifugation, and stored at −80° C. for purification.
Column was washed with 20 mM imidazole in the same buffer and Flag-PRMT6-His was eluted with 150 mM imidazole. Pooled fractions were dialysed against buffer Ni-A and further purified by anti-flag M2 affinity chromatography. Flag-PRMT6-His was eluted with 200 ug/ml FLAG peptide in the same buffer. Pooled fractions were dialysed in 20 mM Tris, 150 mM NaCl, 10% glycerol and 5 mM β-mercaptoethanol, pH 7.8. The purity of recovered protein was 95%.
General Procedure for PRMT6 Enzyme Assays on Peptide Substrates.
The assays were all performed in a buffer consisting of 20 mM Bicine (pH=7.6), 1 mM TCEP, 0.005% BSG, and 0.002% Tween 20, prepared on the day of use. Compounds in 100% DMSO (1 ul) were spotted into a polypropylene 384-well V-bottom plates (Greiner) using a Platemate Plus outfitted with a 384-channel head (Thermo Scientific). DMSO (1 ul) was added to Columns 11, 12, 23, 24, rows A-H for the maximum signal control and 1 ul of SAH, a known product and inhibitor of PRMT6, was added to columns 11, 12, 23, 24, rows I-P for the minimum signal control. A cocktail (40 ul) containing the PRMT6 enzyme was added by Multidrop Combi (Thermo-Fisher). The compounds were allowed to incubate with PRMT6 for 30 min at room temperature, then a cocktail (10 ul) containing SAM and peptide was added to initiate the reaction (final volume=51 ul). The final concentrations of the components were as follows: PRMT6 was 1 nM, ^3H-SAM was 200 nM, non-radiolabeled SAM was 250 nM, peptide was 75 nM, SAH in the minimum signal control wells was 1 mM, and the DMSO concentration was 2%. The assays were stopped by the addition of non-radiolabeled SAM (10 ul) to a final concentration of 400 uM, which dilutes the ^3H-SAM to a level where its incorporation into the peptide substrate is no longer detectable. 50 ul of the reaction in the 384-well polypropylene plate was then transferred to a 384-well Flashplate and the biotinylated peptides were allowed to bind to the streptavidin surface for at least 1 hour before being washed once with 0.1% Tween20 in a Biotek ELx405 plate washer. The plates were then read in a PerkinElmer TopCount plate reader to measure the quantity of ^3H-labeled peptide bound to the Flashplate surface, measured as disintegrations per minute (dpm) or alternatively, referred to as counts per minute (cpm).
Where dpm=disintegrations per minute, cmpd=signal in assay well, and min and max are the respective minimum and maximum signal controls. […]

Sequence of full-length human PRMT6 (Flag- and His-tagged) (Q96LA8 with tags, fused parts or gaps): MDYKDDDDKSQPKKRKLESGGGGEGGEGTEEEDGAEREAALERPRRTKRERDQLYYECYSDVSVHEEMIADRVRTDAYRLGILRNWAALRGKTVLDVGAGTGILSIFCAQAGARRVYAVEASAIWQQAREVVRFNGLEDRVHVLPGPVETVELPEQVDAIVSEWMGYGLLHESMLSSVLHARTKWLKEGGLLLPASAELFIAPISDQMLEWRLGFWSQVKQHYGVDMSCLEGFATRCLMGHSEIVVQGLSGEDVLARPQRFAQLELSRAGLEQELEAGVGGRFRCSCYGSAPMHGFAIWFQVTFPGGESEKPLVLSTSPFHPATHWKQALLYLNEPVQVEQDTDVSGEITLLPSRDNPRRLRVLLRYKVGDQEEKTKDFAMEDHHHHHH

Row | SMILES | IC50
1 | CNCCN(C)Cc1c[nH]nc1C1CCC(C)(C)[C@H](COCCOC)C1 (stereo partly drawn) [compound 35, {2-[({3-[(3R)-3-[(2-methoxyethoxy)methyl]-4,4-dimethylcyclohexyl]-1H-pyrazol-4-yl}methyl)(methyl)amino]ethyl}(methyl)amine] | 124 nM
2 | CCCOCC1(COCCC)CCC(c2n[nH]cc2CN(C)CCNC)CC1 [compound 36, N^1-((3-(4,4-bis(propoxymethyl)cyclohexyl)-1H-pyrazol-4-yl)methyl)-N^1,N^2-dimethylethane-1,2-diamine] | 14.9 nM
3 | CC[C@]12CC[C@](CC)(C[C@H](c3n[nH]cc3CN(C)CCNC)C1)O2 [compound 37, N1-((3-((1R,3r,5S)-1,5-diethyl-8-oxabicyclo[3.2.1]octan-3-yl)-1H-pyrazol-4-yl)methyl)-N1,N2-dimethylethane-1,2-diamine] | 128 nM
4 | CC[C@]12CC[C@](CC)(C[C@@H](c3n[nH]cc3CN(C)CCNC)C1)O2 [compound 38, N1-((3-((1R,3s,5S)-1,5-diethyl-8-oxabicyclo[3.2.1]octan-3-yl)-1H-pyrazol-4-yl)methyl)-N1,N2-dimethylethane-1,2-diamine] | 132 nM
5 | CNCCN(C)Cc1ccnn1[C@H]1CC[C@]2(CC1)CC(C)(C)CO2 [compound 50, N1-((1-((5r,8r)-3,3-dimethyl-1-oxaspiro[4.5]decan-8-yl)-1H-pyrazol-5-yl)methyl)-N1,N2-dimethylethane-1,2-diamine] | 502 nM
6 | Cc1[nH]nc([C@H]2CC[C@@]3(CC2)CC(C)(C)CO3)c1CN(C)CCN [compound 51, N1-((3-((5s,8s)-3,3-dimethyl-1-oxaspiro[4.5]decan-8-yl)-5-methyl-1H-pyrazol-4-yl)methyl)-N1-methylethane-1,2-diamine] | 155 nM
7 | Cc1[nH]nc([C@H]2CC[C@]3(CC2)CC(C)(C)CO3)c1CN(C)CCN [compound 52, N1-((3-((5r,8r)-3,3-dimethyl-1-oxaspiro[4.5]decan-8-yl)-5-methyl-1H-pyrazol-4-yl)methyl)-N1-methylethane-1,2-diamine] | 202 nM
8 | CNCCN(C)Cc1c(C)[nH]nc1[C@H]1CC[C@@]2(CC1)CC(C)(C)CO2 [compound 57] | 94 nM
9 | CNCCN(C)Cc1c(C)[nH]nc1[C@H]1CC[C@]2(CC1)CC(C)(C)CO2 [compound 58] | 163 nM
10 | Cc1[nH]nc(C2CCC3(CC2)CC(C)(C)CO3)c1CN(C)CCN (stereo not drawn) [compound 59] | 131 nM
11 | CCOCC1(COCC)CC=C(c2n[nH]cc2CN(C)CCNC)CC1 [compound 60] | 41.1 nM
12 | CNCCN(C)Cc1scnc1[C@H]1CC[C@@]2(CC1)CC(C)(C)CO2 [compound 62] | 18.3 nM
13 | CNCCN(C)Cc1nn(C)nc1[C@H]1CC[C@@]2(CC1)CC(C)(C)CO2 [compound 64] | 208 nM
14 | CNCCN(C)Cc1cnnn1[C@H]1CC[C@@]2(CC1)CC(C)(C)CO2 [compound 65] | > 10000 nM
15 | CNCCN(C)Cc1nn[nH]c1[C@H]1CC[C@@]2(CC1)CC(C)(C)CO2 [compound 67] | 51.1 nM
16 | CNCCN(C)Cc1nncn1[C@H]1CC[C@@]2(CC1)CC(C)(C)CO2 [compound 68] | > 10000 nM
17 | CNCCN(C)Cc1nccn1[C@H]1CC[C@@]2(CC1)CC(C)(C)CO2 [compound 69] | 8040 nM
18 | CNCCN(C)Cc1nnc(C)n1[C@H]1CC[C@@]2(CC1)CC(C)(C)CO2 [compound 71] | > 10000 nM
19 | CNCCN(C)Cc1cncn1[C@H]1CC[C@@]2(CC1)CC(C)(C)CO2 [compound 76] | 181 nM
20 | CNCCN(C)Cc1nc(C)sc1[C@H]1CC[C@@]2(CC1)CC(C)(C)CO2 [compound 77] | 180 nM
21 | CNCCN(C)Cc1sc(C)nc1[C@H]1CC[C@@]2(CC1)CC(C)(C)CO2 [compound 78] | 98.4 nM
22 | CN(CCN)Cc1nn(C)cc1[C@H]1CC[C@@]2(CC1)CC(C)(C)CO2 [compound 80] | 345 nM
23 | CNCCN(C)Cc1nn(C)cc1[C@H]1CC[C@@]2(CC1)CC(C)(C)CO2 [compound 81] | 123 nM
24 | CNCCN(C)Cc1ncsc1[C@H]1CC[C@@]2(CC1)CC(C)(C)CO2 [compound 83] | 62.7 nM
25 | CNCCN(C)Cc1scnc1[C@H]1CC[C@]2(CC1)CC(C)(C)CO2 [compound 84] | 89.3 nM
26 | CNCCN(C)Cc1nn(C)nc1C1CCC2(CC1)CC(C)(C)CO2 (stereo not drawn) [compound 86] | 444 nM

Row | SMILES | IC50
27 | CNCCN(C)Cc1nn[nH]c1[C@H]1CC[C@]2(CC1)CC(C)(C)CO2 [compound 89] | 428 nM
28 | CNCCN(C)Cc1nncn1[C@H]1CC[C@]2(CC1)CC(C)(C)CO2 [compound 90] | > 10000 nM
29 | CNCCN(C)Cc1nccn1[C@H]1CC[C@]2(CC1)CC(C)(C)CO2 [compound 91] | > 10000 nM
30 | CNCCN(C)Cc1nnc(C)n1[C@H]1CC[C@]2(CC1)CC(C)(C)CO2 [compound 93] | > 10000 nM
31 | CNCCN(C)Cc1c(Cl)ncn1[C@H]1CC[C@]2(CC1)CC(C)(C)CO2 [compound 97] | 3510 nM
32 | CNCCN(C)Cc1cncn1[C@H]1CC[C@]2(CC1)CC(C)(C)CO2 [compound 98] | 2790 nM
33 | CNCCN(C)Cc1nc(C)sc1[C@H]1CC[C@]2(CC1)CC(C)(C)CO2 [compound 99] | 317 nM
34 | CNCCN(C)Cc1sc(C)nc1[C@H]1CC[C@]2(CC1)CC(C)(C)CO2 [compound 100] | 389 nM
35 | CN(CCN)Cc1nn(C)cc1[C@H]1CC[C@]2(CC1)CC(C)(C)CO2 [compound 102] | 1140 nM
36 | CNCCN(C)Cc1nn(C)cc1[C@H]1CC[C@]2(CC1)CC(C)(C)CO2 [compound 103] | 405 nM
37 | CN(CCN)Cc1c[nH]nc1[C@H]1CC[C@@]2(CC1)CC(C)(C)CO2 [compound 105] | 18.5 nM
38 | CN(CCN)Cc1c[nH]nc1[C@H]1CC[C@]2(CC1)CC(C)(C)CO2 [compound 106] | 12.8 nM
39 | CNCCN(C)Cc1c(C)noc1[C@H]1CC[C@@]2(CC1)CC(C)(C)CO2 [compound 113] | 1150 nM
40 | CNCCN(C)Cc1c(C)noc1[C@H]1CC[C@]2(CC1)CC(C)(C)CO2 [compound 114] | 2080 nM
41 | CNCCN(C)Cc1n[nH]cc1[C@H]1CC[C@@]2(CC1)CC(C)(C)CO2 [compound 115] | 41.6 nM
42 | CNCCN(C)Cc1n[nH]cc1[C@H]1CC[C@]2(CC1)CC(C)(C)CO2 [compound 116] | 134 nM
43 | CNCCN(C)Cc1nocc1[C@H]1CC[C@@]2(CC1)CC(C)(C)CO2 [compound 117] | 1310 nM
44 | CNCCN(C)Cc1nocc1[C@H]1CC[C@]2(CC1)CC(C)(C)CO2 [compound 118] | 3530 nM
45 | CCOCC1(COCC)CCC(c2n[nH]cc2CN(C)CCN(C)C)CC1 [compound 121] | 79.3 nM
46 | CCOCC1(COCC)CCC(c2nn(C)cc2CN(C)CCNC)CC1 [compound 122] | 42.7 nM
47 | CCOCC1(COCC)CCC(c2n[nH]cc2CN(C)CCN)CC1 [compound 123] | 16.7 nM
48 | CCOCC1(COCC)CCC(c2nn(C)cc2CN(C)CCN)CC1 [compound 124] | 58.1 nM
49 | CNCCN(C)Cc1c[nH]nc1C1CCC2(CC1)CC(C)(C)OC2=O (stereo not drawn) [compound 125] | 17.4 nM
50 | CNCCN(C)Cc1c[nH]nc1[C@H]1CC[C@@]2(CC1)COC(C)(C)C2 [compound 126, N1-((3-((5r,8r)-3,3-dimethyl-2-oxaspiro[4.5]decan-8-yl)-1H-pyrazol-4-yl)methyl)-N1,N2-dimethylethane-1,2-diamine] | 39.9 nM
51 | CNCCN(C)Cc1c[nH]nc1[C@H]1CC[C@]2(CCCCO2)CC1 [compound 127, methyl([2-[methyl([3-[(6s,9r)-1-oxaspiro[5.5]undecan-9-yl]-1H-pyrazol-4-yl]methyl)amino]ethyl])amine bistrifluoroacetic acid salt] | 23.2 nM
